The first experiment has as its system CWR22RV1 cells. Briefly: Inhibition of proliferation of CWR22RV1 cells (CCK-8). The conditions noted are these: Homo sapiens, 144 h, 6 days. The format is cell-based, human. An outline of the steps:
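Cells seeded at 1500/well, cultured overnight, then exposed to compounds in 3-fold dilutions (9 concentrations from 10 μM top final, 0.1% DMSO) for 6 days at 37 °C. Viability read by CCK-8 absorbance at 450 nm after 2.5 h; IC50 from dose-response inhibition fit.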
One may read the IC50 as the concentration that inhibits the measured activity by half. As for `Cn1cc(-c2cc(S(C)(=O)=O)ccc2N2CCC3(CC2)CC3C#N)c2cc[nH]c2c1=O` (centres unmarked) [Compound 181, 6-(2-(6-methyl-7-oxo-6,7-dihydro-1H-pyrrolo[2,3-c]pyridin-4-yl)-4-(methylsulfonyl)phenyl)-6-aza-spiro[2.5]octan-1-cyanide], the half-maximal inhibitory concentration (IC50) came to 90 nM.

Staying with this experiment, now noted: Homo sapiens, CWR22Rv1, 144 h, 6 days.
On to `Cn1cc(-c2cc(S(C)(=O)=O)ccc2N2CCC3(CC2)CC3CO)c2cc[nH]c2c1=O` (centres unmarked) [Compound 179, 4-(2-(1-(hydroxymethyl)-6-aza-spiro[2.5]octan-6-yl)-5-(methylsulfonyl)phenyl)-6-methyl-1H-pyrrolo[2,3-c]pyridin-7(6H)-one], for which the IC50 is 51 nM.

The molecule `Cn1cc(-c2cc(S(C)(=O)=O)ccc2N2CCC3(CC2)CC3C(N)=O)c2cc[nH]c2c1=O` (centres unmarked) [Compound 180, 6-(2-(6-methyl-7-oxo-6,7-dihydro-1H-pyrrolo[2,3-c]pyridin-4-yl)-4-(methylsulfonyl)phenyl)-6-aza-spiro[2.5]octan-1-formamide] gave an IC50 of 460 nM.

In the case of `Cc1c[nH]c2c(=O)n(C)cc(-c3cc(S(C)(=O)=O)ccc3N3CCC4(CC3)CC4)c12` [Compound 182, 3,6-dimethyl-4-(5-(methylsulfonyl)-2-(6-aza-spiro[2.5]octan-6-yl)phenyl)-1H-pyrrolo[2,3-c]pyridin-7(6H)-one], inhibition was half-maximal at 40 nM (IC50).

`[2H]C([2H])([2H])n1cc(-c2cc(S(C)(=O)=O)ccc2N2CCC3(CC2)COC3)c2cc[nH]c2c1=O` [Compound 183, 6-trideuteromethyl-4-(5-(methylsulfonyl)-2-(2-oxa-7-aza-spiro [3.5]nonan-7-yl)phenyl)-1H-pyrrolo[2,3-c]pyridin-7(6H)-one] returned an IC50 of 63 nM.

In turn, `[2H]C([2H])([2H])n1cc(-c2cc(S(C)(=O)=O)ccc2N2CCC3(CC2)CC3C(N)=O)c2cc[nH]c2c1=O` (centres unmarked) [Compound 185, 6-(2-(6-trideuteromethyl-7-oxo-6,7-dihydro-1H-pyrrolo[2,3-c]pyridin-4-yl)-4-(methylsulfonyl)phenyl)-6-aza-spiro[2.5]octan-1-formamide] returned an IC50 of 1040 nM.

Turning to `[2H]C([2H])([2H])n1cc(-c2cc(S(=O)(=O)CC)cnc2N2CCC3(CC2)CC3)c2cc[nH]c2c1=O` [Compound 186, 4-(5(ethylsulfonyl)-2-(6-aza-spiro[2.5]octan-6-yl)pyridin-3-yl)-6-trideuteromethyl-1H-pyrrolo[2,3-c]pyridin-7(6H)-one], the IC50 was 21 nM. Compared with the last molecule, the IC50 is about 50-fold lower.

`[2H]C([2H])([2H])n1cc(-c2cc(S(C)(=O)=O)cnc2N2CCC3(CC2)CC3)c2cc[nH]c2c1=O` [Compound 187, 6-trideuteromethyl-4-(5(methylsulfonyl)-2-(6-aza-spiro[2.5]octan-6-yl)pyridin-3-yl)-1H-pyrrolo[2,3-c]pyridin-7(6H)-one] registered an IC50 of 19 nM. This IC50 and that of the molecule before are within 1.5-fold of each other.

With `[2H]C([2H])([2H])n1cc(-c2cc(S(=O)(=O)C(C)C)cnc2N2CCC3(CC2)CC3)c2cc[nH]c2c1=O` [Compound 188, 4-(5-(isopropylsulfonyl)-2-(6-aza-spiro[2.5]octan-6-yl)pyridin-3-yl)-6-trideuteromethyl-1H-pyrrolo[2,3-c]pyridin-7(6H)-one], the concentration for half-maximal inhibition (IC50) came to 38 nM.

As to `[2H]C([2H])([2H])n1cc(-c2cc(NS(C)(=O)=O)ccc2N2CCC3(CC2)COC3)c2cc[nH]c2c1=O` [Compound 189, N-(3-(6-trideuteromethyl-7-oxo-6,7-dihydro-1H-pyrrolo[2,3-c]pyridin-4-yl)-4-(2-oxa-7-aza-spiro[3.5]nonan-7-yl)phenyl)methanesulfonamide], the midpoint of inhibition, the IC50, lay at 120 nM.

With `CCS(=O)(=O)Nc1ccc(N2CC3CC2CO3)c(-c2cn(C)c(=O)c3[nH]ccc23)c1` (centres unmarked) [Compound 190, N-(4-(2-oxa-5-azabicyclo[2.2.1]heptan-5-yl)-3-(methyl-7-oxo-6,7-dihydro-1H-pyrrolo[2,3-c]pyridin-4-yl)phenyl)ethanesulfonamide], the IC50 stood at 180 nM. Against the preceding molecule, the IC50 is about 1.5-fold higher.

Molecule `Cn1cc(-c2cc(NS(=O)(=O)C3COC3)ccc2N2CCC3(CC3)C2)c2cc[nH]c2c1=O` [Compound 191, N-(3-(6-methyl-7-O-6,7-dihydro-1H-pyrrolo[2,3-c]pyridin-4-yl)-4-(5-aza-spiro[2.4]heptan-2-yl)phenyl)oxetane-3-ylsulfonamide] came in with an IC50 of 140 nM.

As to `Cn1cc(-c2cc(NS(C)(=O)=O)ccc2N2CC3CC2CO3)c2cc[nH]c2c1=O` (centres unmarked) [Compound 192, N-(4-(2-oxa-5-azabicyclo[2.2.1]heptan-5-yl)-3-(6-methyl-7-oxo-6,7-dihydro-1H-pyrrolo[2,3-c]pyridin-4-yl)phenyl)methanesulfonamide], the IC50 came to 310 nM.

As to `CCS(=O)(=O)Nc1ccc(N2CCC3(CC2)COC3)c(-c2cn(C)c(=O)c3[nH]ccc23)c1` [Compound 194, N-(3-(6-methyl-7-oxo-6,7-dihydro-1H-pyrrolo[2,3-c]pyridin-4-yl)-4-(2-oxa-7-aza-spiro[3.5]nonan-7-yl)phenyl)ethanesulfonamide], the IC50 amounted to 46 nM.

Turning to `Cn1cc(-c2cc(NS(C)(=O)=O)ccc2N2CCC3(CC2)COC3)c2cc[nH]c2c1=O` [Compound 195, N-(3-(6-methyl-7-oxo-6,7-dihydro-1H-pyrrolo[2,3-c]pyridin-4-yl)-4-(2-oxa-7-aza-spiro[3.5]nonan-7-yl)phenyl)methanesulfonamide], the IC50 was determined as 160 nM. This IC50 is about 3.5-fold higher than that of the molecule before.

As to `[2H]C([2H])([2H])n1cc(-c2cc(NS(=O)(=O)CC)ccc2N2CCC3(CC2)COC3)c2cc[nH]c2c1=O` [Compound 196, N-(3-(6-trideuteromethyl-7-oxo-6,7-dihydro-1H-pyrrolo[2,3-c]pyridin-4-yl)-4-(2-oxa-7-aza-spiro[3.5]nonan-7-yl)phenyl)ethanesulfonamide], it took 56 nM to reach half-maximal inhibition (IC50). Compared with the last molecule, the IC50 is about 2.9-fold lower.

`[2H]C([2H])([2H])n1cc(-c2cc(S(=O)(=O)NCC)ccc2N2CCC3(CC2)CC3)c2cc[nH]c2c1=O` [Compound 197, N-ethyl-3-(6-trideuteromethyl-7-oxo-6,7-dihydro-1H-pyrrolo [2,3-c]pyridin-4-yl)-4-(6-aza-spiro[2.5]octan-6-yl)benzenesulfonamide] returned an IC50 of 5 nM.

Consider `[2H]C([2H])([2H])n1cc(-c2cc(S(N)(=O)=O)cnc2N2CCC3(CC3)C2)c2cc[nH]c2c1=O` [Compound 198, 5-(6-trideuteromethyl-7-oxo-6,7-dihydro-1H-pyrrolo[2,3-c]pyridin-4-yl)-6-(5-aza-spiro[2.4]heptan-5-yl)pyridin-3-sulfonamide], for which the IC50 amounted to 10 nM.

`[2H]C([2H])([2H])n1cc(-c2cc(S(N)(=O)=O)cnc2N2CCC3(CC2)CC3)c2cc[nH]c2c1=O` [Compound 199, 5-(6-trideuteromethyl-7-oxo-6,7-dihydro-1H-pyrrolo[2,3-c]pyridin-4-yl)-6-(6-aza-spiro[2.5]octan-6-yl)pyridin-3-sulfonamide] had a half-maximal inhibitory concentration (IC50) of 2 nM.

`[2H]C([2H])([2H])n1cc(-c2cc(S(N)(=O)=O)ccc2N2CCC3(CC3)C2)c2cc[nH]c2c1=O` [Compound 200, 3-(6-trideuteromethyl-7-oxo-6,7-dihydro-1H-pyrrolo[2,3-c]pyridin-4-yl)-4-(5-aza-spiro[2.4]heptan-5-yl)benzensulfonamide] had an IC50 of 6.7 nM.

Turning to `[2H]C([2H])([2H])n1cc(-c2cc(S(N)(=O)=O)ccc2N2CCC3(CC2)CC3)c2cc[nH]c2c1=O` [Compound 201, 3-(6-trideuteromethyl-7-oxo-6,7-dihydro-1H-pyrrolo[2,3-c]pyridin-4-yl)-4-(6-azaspiro[2.5]octan-6-yl)benzenesulfonamide], half-maximal inhibition (IC50) was put at 1.4 nM.

`[2H]C([2H])([2H])n1cc(-c2cc(S(=O)(=O)N(C)C)ccc2N2CCC3(CC2)CC3)c2cc[nH]c2c1=O` [Compound 203, N,N-dimethyl-3-(6-trideuteromethyl-7-oxo-6,7-dihydro-1H-pyrrolo[2,3-c]pyridin-4-yl)-4-(6-aza-spiro[2.5]octan-6-yl)benzenesulfonamide] gave an IC50 of 0.2 nM. This IC50 is about 7-fold lower than that of the molecule before.

`[2H]C([2H])([2H])n1cc(-c2cc(S(=O)(=O)NCCO)ccc2N2CCC3(CC2)CC3)c2cc[nH]c2c1=O` [Compound 205, N-(2-hydroxyethyl)-3-(6-trideuteromethyl-7-oxo-6,7-dihydro-1H-pyrrolo[2,3-c]pyridin-4-yl)-4-(6-aza-spiro[2.5]octan-6-yl)benzenesulfonamide] showed a half-maximal inhibitory concentration (IC50) of 4.8 nM.

In turn, `Cn1cc(-c2cc(C(=O)O)ccc2N2CCC3(CC2)CC3)c2cc[nH]c2c1=O` [Compound 220, 3-(6-methyl-7-oxo-6,7-dihydro-1H-pyrrolo[2,3-c]pyridin-4-yl)-4-(6-aza-spiro[2.5]octan-6-yl)benzoic acid] displayed a half-inhibitory concentration (IC50) of 530 nM.

`Cn1cc(-c2cc(C(N)=O)ccc2N2CCC3(CC2)CC3)c2cc[nH]c2c1=O` [Compound 221, 3-(6-methyl-7-oxo-6,7-dihydro-1H-pyrrolo[2,3-c]pyridin-4-yl)-4-(6-aza-spiro[2.5]octan-6-yl)benzeneformamide] returned an IC50 of 130 nM. This IC50 lies about 4.1-fold lower than the previous one.

In turn, `COC(=O)c1ccc(N2CCC3(CC2)CC3)c(-c2cn(C)c(=O)c3[nH]ccc23)c1` [Compound 222, methyl 3-(6-methyl-7-oxo-6,7-dihydro-1H-pyrrolo[2,3-c]pyridin-4-yl)-4-(6-aza-spiro[2.5]octan-6-yl)benzoate] registered an IC50 of 350 nM.

As for `CC(=O)c1ccc(N2CCC3(CC2)CC3)c(-c2cn(C)c(=O)c3[nH]ccc23)c1` [Compound 223, 4-(5-acetyl-2-(6-aza-spiro[2.5]octan-6-yl)phenyl)-6-methyl-1H-pyrrolo[2,3-c]pyridin-7(6H)-one], the IC50 amounted to 110 nM.

`Cn1cc(-c2cc(C(=O)N3CCS(=O)(=O)CC3)ccc2N2CCC3(CC2)CC3)c2cc[nH]c2c1=O` [Compound 224, 4-(5-(1,1-dioxothiomorpholine-4-carbonyl)-2-(6-aza-spiro[2.5]octan-6-yl)phenyl)-6-methyl-1H-pyrrolo[2,3-c]pyridin-7(6H)-one] showed an IC50 of 62 nM.

For `Cn1cc(-c2cc(C(C)(C)O)ccc2N2CCC3(CC2)CC3)c2cc[nH]c2c1=O` [Compound 225, 4-(5-(2-hydroxypropan-2-yl)-2-(6-aza-spiro[2.5]octan-6-yl)phenyl)-6-methyl-1H-pyrrolo[2,3-c]pyridin-7(6H)-one], it took 130 nM to reach half-maximal inhibition (IC50).

Values taken from patent US12162878B2 (HINOVA PHARMACEUTICALS INC., priority 2018, dated 2024).
